Measured values taken from patent publication US20070010565A1, “New thiazolidinones without basic nitrogen, their production and use as pharmaceutical agents” (priority 2005, published 2007).

Key:
[1] = target: T1, Recombinant human Plk-1 (6×His) (Homo sapiens, UniProt P53350); experiment: PLK enzyme assay; assay type: biochemical; conditions: biotinylated casein and 33P-γ-ATP substrate, 90 minutes at room temperature, SPA beads; read-out: PLK-1 IC50 [nM] Inhibition
T1 construct: 6xHis; made in house; host or cells: baculovirus-infected insect cells (Hi5)
Method: Recombinant human Plk-1 (6×His) was purified from baculovirus-infected insect cells (Hi5).
10 ng of (produced in a recombinant manner and purified) PLK enzyme is incubated for 90 minutes at room temperature with biotinylated casein and 33P-γ-ATP as a substrate in a volume of 15 μl in 384-well Greiner small-volume microtiter plates (final concentrations in the buffer: 660 ng/ml of PLK; 0.7 μmol of casein, 0.5 μmol of ATP incl. 400 nCi/ml of 33P-γ-ATP; 10 mmol of MgCl2, 1 mmol of MnCI2; 0.01% NP40; 1 mmol of DTT, protease inhibitors; 0.1 mmol of Na2VO3 in 50 mmol of HEPES, pH 7.5). To complete the reaction, 5 μl of stop solution (500 μmol of ATP; 500 mmol of EDTA; 1% Triton X100; 100 mg/ml of streptavidin-coated SPA beads in PBS) is added. After the microtiter plate is sealed by film, the beads are sedimented by centrifuging (10 minutes, 1500 rpm). The incorporation of 33P-γ-ATP in casein is intended as a measurement of enzyme activity by β-counting.
Test substances are used in various concentrations (0 μmol, as well as in the range of 0.01-30 μmol). The final concentration of the solvent dimethyl sulfoxide is 1.5% in all batches.

[2] = system: human MaTu breast tumour cells; experiment: Proliferation assay (crystal violet); assay type: cell-based; conditions: 96 h, 4 days incubation, read-out: Inhibition of the Tumour Cell Proliferation (MaTu) IC50
Method: Cultivated human MaTu breast tumour cells were flattened out at a density of 5000 cells/measuring point in a 96-well multititer plate in 200 μl of the corresponding growth medium. After 24 hours, the cells of one plate (zero-point plate) were colored with crystal violet (see below), while the medium of the other plates was replaced by fresh culture medium (200 μl), to which the test substances were added at various concentrations (0 μm, as well as in the range of 0.01-30 μm; the final concentration of the solvent dimethyl sulfoxide was 0.5%). The cells were incubated for 4 days in the presence of test substances. The cell proliferation was determined by coloring the cells with crystal violet: the cells were fixed by adding 20 μl/measuring point of an 11% glutaric aldehyde solution for 15 minutes at room temperature. After three washing cycles of the fixed cells with water, the plates were dried at room temperature. The cells were colored by adding 100 μl/measuring point of a 0.1% crystal violet solution (pH was set at 3 by adding acetic acid). […] The extinction was determined by photometry at a wavelength of 595 nm. The change of cell growth, in percent, was calculated by standardization of the measured values to the extinction values of the zero-point plate (=0%) and the extinction of the untreated (0 μm) cells (=100%).

T1 sequence (P53350 whole entry): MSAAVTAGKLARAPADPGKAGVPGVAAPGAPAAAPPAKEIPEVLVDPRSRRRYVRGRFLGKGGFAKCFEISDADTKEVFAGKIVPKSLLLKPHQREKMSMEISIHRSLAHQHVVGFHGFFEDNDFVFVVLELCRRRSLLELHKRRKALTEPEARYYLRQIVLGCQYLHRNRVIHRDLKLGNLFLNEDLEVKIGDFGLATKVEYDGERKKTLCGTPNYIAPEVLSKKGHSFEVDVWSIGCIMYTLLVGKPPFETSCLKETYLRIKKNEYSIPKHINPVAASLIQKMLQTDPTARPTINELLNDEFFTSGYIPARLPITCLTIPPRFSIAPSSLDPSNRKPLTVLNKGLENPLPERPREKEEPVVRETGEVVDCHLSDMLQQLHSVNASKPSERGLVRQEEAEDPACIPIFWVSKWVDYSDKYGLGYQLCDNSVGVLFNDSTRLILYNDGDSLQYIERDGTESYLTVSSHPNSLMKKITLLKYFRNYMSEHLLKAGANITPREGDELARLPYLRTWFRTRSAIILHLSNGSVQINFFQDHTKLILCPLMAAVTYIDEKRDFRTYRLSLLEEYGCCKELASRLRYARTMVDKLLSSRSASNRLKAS

Compound `C#CCNC(=O)/C(C#N)=c1\sc(=Cc2ccc(O)cc2)c(=O)n1CC` [Example 8] has an IC50 [1] of 39 nM and an IC50 [2] of 3.2 µM.

`C#CCNC(=O)/C(C#N)=c1\sc(=Cc2ccc(N3CCCC3)cc2)c(=O)n1CC` [Example 10] gave an IC50 [1] of 23 nM.

`CCNC(=O)/C(C#N)=c1\sc(=Cc2ccc(O)cc2)c(=O)n1CC` [Example 3] gave an IC50 [1] of 230 nM.
